Experimental data taken from US9616056B2, “Inhibition of leukotriene synthesis and activity in the treatment of sonic hedgehog-associated medulloblastoma” (Institute for Cancer Research, priority 2013, dated 2017).
“Also recorded” adds a separate entry of the source.

Tests used:
Ptch1-deficient GNPs = assay: Induction of Nestin expression in Ptch1-deficient GNPs (immunocytochemistry); assay type: cell-based, mouse; details: 20 ng/ml leukotriene, 48 hrs after Cre lentivirus infection
Experimental: (§1) GNPs isolated from Ptch1^C/C animals were plated and infected with lentivirus carrying Cre recombinase to delete Ptch1. At 48 hrs following the infection, GNPs were stained for Cre (green) and Nestin (red) in control (Panel A) and in the presence of 20 ng/ml leukotriene (Panel B). MB cells were plated in vitro for 48 hrs, and stained for Nestin (red) in control (Panel C) and in the presence of 5 μM MK886. (Panel D).
Since Nestin is a cytoskeleton protein, it was examined whether leukotriene could induce Nestin expression in medulloblastoma cells. For this purpose, cerebellar GNPs were isolated from Ptch1^C/C animals, and Patched1 (Ptch1) was deleted from GNPs by using a lentivirus with Cre recombinase. At 48 hrs following the infection, cells were harvested to analyze Nestin expression by immunocytochemistry. […] The presence of Nestin mRNA and protein has been confirmed by RT-PCR and western blotting (data not shown).

[1] = test system: GBM cell lines T98G, U-87MG and U251; assay: GBM cell viability by Alamar blue assay; assay type: cell-based; details: various concentrations, 48 hrs (FIG. 8)
Experimental: Three GBM cell lines (T98G, U87-MG and U251) were plated and treated with MK886 and Montelukast at various concentrations for 48 hrs. Cell viability was measured by Alamar blue assay. Data represent the average of triplicate+SD. *p<0.05
To test the efficacy of leukotriene inhibitors in preventing glioblastoma cell proliferation, three GBM cell lines: T98G, U-87MG and U251 (purchased from an in-house cell culture facility) were utilized. The cell lines were treated with MK886 and Montelukast at different concentrations. After treatment for 48 hrs, cell survival and growth was analyzed by Alamar blue assay (Al-Nasiry, S et al. (2007) Hum. Reprod. 22:1304-9).

[2] = test system: tumor cells isolated from Math1-Cre/Ptch1^C/C animals (MB cells); assay: Nestin expression in cultured medulloblastoma tumor cells (immunostaining); assay type: cell-based, mouse
Experimental: as §1
Tumor cells isolated from Math1-Cre/Ptch1^C/C animals, were treated with 3 μM DMSO (Panels A and B) or MK886 (Panels C and D) in vitro. After 48 hrs treatment, tumor cells were harvested for immunostaining with antibodies against Nestin (red) and Ki67 (green) (Panels B and D). The same cultures were counterstained by DAPI (blue) to show the total cell number (Panels A and B).
To further examine whether Leukotriene synthesis is required for Nestin expression in tumor cells, tumor cells were isolated from the mouse model, which has already highly expresses Nestin in vivo, even in the culture at 48 hrs following plating.
It was next investigated whether leukotriene inhibition can prevent tumor cell proliferation. […] At 48 hrs after treatment, tumor cells were analyzed for proliferation by immunostaining for Ki67. […]

[3] = test system: tumor cells isolated from Math1-Cre/Ptch1^C/C animals (MB cells); assay: Tumor cell proliferation in vitro by Ki67 immunostaining; assay type: cell-based, mouse; details: 48 hrs treatment, 3 μM, vs DMSO (FIG. 5)
Experimental: 48 hrs later, the percentage of proliferating cells was calculated after immunostaining the culture with antibody against Ki67.
Tumor cells isolated from the mouse model were treated with MK886 or DMSO as a control. At 48 hrs after treatment, tumor cells were analyzed for proliferation by immunostaining for Ki67.
DMSO was used as a negative control.

[4] = test system: medulloblastoma in Math1-Cre/Ptch1^C/C animals; assay: In vivo tumor growth in tumor bearing Math1-Cre/Ptch1^C/C animals; parameters: species or system mouse
Experimental: Tumor bearing animals were treated with MK886 or DMSO by IP injection. After 1 month treatment, tumors were harvested. Tumor size was reduced by 30% with the treatment of MK886 (Panel A). After the treatment, tumors were sectioned for immunostaining for Nestin (Panels B and D), and Ki67 (Panels C and E). In the control (Panels B and C), tumor cells extensively express Nestin (Panel B) and all the tumor cells were Ki67 positive (Panel C).
Next, the efficacy of MK886 in inhibiting in vivo tumor growth was evaluated. Math1-Cre/Ptch1^C/C animals at postnatal day 21 were treated daily with 30 μg MK886 by intraperitoneal injection. Three weeks later, tumor volume was evaluated by MRI imaging.
Nestin expression and Ki67 was compared in tumor sections by immunohistochemical analysis.

Compound	Nestin protein among Ptch1-deficient GNPs (Ptch1-deficient GNPs)	viability of GBM cells [1]	Nestin expression in tumor cells ([2]; 48 hrs treatment, 3 μM, vs DMSO (FIG. 5))	Nestin expression among tumor cells ([2]; MB cells plated in vitro 48 hrs, 5 μM MK886 (FIG. 4))	proliferation among tumor cells (Ki67) [3]	decrease of tumor size in volume (MRI imaging) ([4]; 30 μg MK886 daily intraperitoneal from postnatal day 21, three weeks, vs DMSO)	tumor size reduction ([4]; IP injection, after 1 month treatment, tumors harvested (FIG. 7 Panel A)) [%]	Nestin expression in tumor sections after treatment ([4]; immunostaining of tumor sections after MK886 treatment vs DMSO)	number of Ki67 positive cells in tumor ([4]; tumor sections after MK886 treatment compared with control)	tumor cells still positive for Ki67 ([4]; tumor sections after MK886 treatment, control all cells Ki67 positive (FIG. 7 Panel E))
leukotriene	high level of Nestin protein was detected									
CC(C)(O)c1ccccc1CC[C@@H](SCC1(CC(=O)O)CC1)c1cccc(/C=C/c2ccc3ccc(Cl)cc3n2)c1 [Montelukast, (R,E)-2-(1-((1-(3-(2-(7-chloroquinolin-2-yl)vinyl)phenyl)-3-(2-(2-hydroxypropan-2-yl)phenyl)propylthio)methyl)cyclopropyl)acetic acid]		effectively reduce the viability								
CC(C)c1ccc2c(c1)c(SC(C)(C)C)c(CC(C)(C)C(=O)[O-])n2Cc1ccc(Cl)cc1.[Na+] [MK886, 1-[(4-Chlorophenyl)methyl]-3-[(1,1-dimethylethyl)thio]-α,α-dimethyl-5-(1-methylethyl)-1H-Indole-2-propanoic acid]		effectively reduce the viability	markedly inhibited	dramatically inhibited	prevented the proliferation	over 30%	30	dramatically reduced; also recorded: almost no Nestin is present	decreased dramatically	around 30%
